Data taken from PubChem BioAssay (NCI).
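Where inhibition never reached the appropriate level, the endpoint shown equals the highest concentration tested. Otherwise, values were interpolated linearly from a five-concentration, 48-hour dose response in 96-well plates. The concentration for 50% growth inhibition is given as GI50. TGI marks complete inhibition of growth.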

Columns and labels:
Assay in all cases: NCI anticancer screen, dose series, 48 h
[1] = tested on: HOP-92 NSCLC
[2] = tested on: MALME-3M melanoma
[3] = tested on: SN12C renal
[4] = tested on: ACHN renal
[5] = tested on: CCRF-CEM leukemia
[6] = tested on: IGROV1 ovarian
[7] = tested on: CAKI-1 renal
[8] = tested on: PC-3 prostate
[9] = tested on: EKVX NSCLC
[10] = tested on: K-562 leukemia
[11] = tested on: NCI-H522 lung
[12] = tested on: A498 renal
[13] = tested on: MDA-MB-468 breast
[14] = tested on: HL-60(TB) leukemia
[15] = tested on: NCI-H460 lung
[16] = tested on: T-47D breast
[17] = tested on: DU-145 prostate
[18] = tested on: BT-549 breast
[19] = tested on: NCI-H226 lung
[20] = tested on: MDA-MB-231 breast
[21] = tested on: SF-295 CNS
[22] = tested on: MOLT-4 leukemia
[23] = tested on: OVCAR-4 ovarian
[24] = tested on: SF-268 CNS
[25] = tested on: SF-539 CNS
[26] = tested on: RPMI-8226 leukemia
[27] = tested on: MDA-MB-435
[28] = tested on: SW-620 colon
[29] = tested on: M14 melanoma
[30] = tested on: U251 CNS
[31] = tested on: NCI/ADR-RES ovarian
[32] = tested on: SK-MEL-2 melanoma
[33] = tested on: A549 NSCLC
[34] = tested on: OVCAR-8 ovarian
[35] = tested on: SK-MEL-5 melanoma
[36] = tested on: HOP-62 NSCLC
[37] = tested on: UACC-62 melanoma
[38] = tested on: SR leukemia
[39] = tested on: LOX IMVI melanoma
[40] = tested on: SNB-75 CNS
[41] = tested on: HCT-116 colon
[42] = tested on: COLO 205 colon
[43] = tested on: OVCAR-5 ovarian
[44] = tested on: HS 578T breast
[45] = tested on: TK-10 renal
[46] = tested on: SK-OV-3 ovarian
[47] = tested on: HCC-2998 colon
[48] = tested on: MCF7 breast
[49] = tested on: SNB-19 CNS
[50] = tested on: OVCAR-3 ovarian
[51] = tested on: HCT-15 colon
[52] = tested on: NCI-H23 lung
[53] = tested on: RXF 393 renal
[54] = tested on: HT29 colon
[55] = tested on: UO-31 renal
[56] = tested on: KM12 colon
[57] = tested on: SK-MEL-28 melanoma
[58] = tested on: 786-0 renal
[59] = tested on: UACC-257 melanoma

With S=C(NCCc1ccccc1)Nc1ccc(OCc2nc3ccc(Cl)cc3[nH]2)cc1 the GI50 [1] was 3.52 µM, the TGI [1] was 17 µM and the GI50 [2] was 12.5 µM. The TGI [2] was 25.2 µM, the GI50 [3] was 6.28 µM and the TGI [3] was 20.1 µM. For the same compound, the GI50 [4] was 7.74 µM, the TGI [4] was 20.4 µM and the GI50 [5] was 3.06 µM. The TGI [5] was 14.8 µM, the GI50 [6] was 6.26 µM and the TGI [6] was 19.9 µM. For the same compound, the GI50 [7] was 4.32 µM, the TGI [7] was 17.7 µM and the GI50 [8] was 6.8 µM. For the same compound, the TGI [8] was 22.9 µM, the GI50 [9] was 7.97 µM and the TGI [9] was 21.2 µM. It also gave a GI50 [10] of 3.04 µM, a TGI [10] of 20 µM and a GI50 [11] of 2.22 µM. It also gave a TGI [11] of 7.02 µM, a GI50 [12] of 10.4 µM and a TGI [12] of 22.7 µM. It also gave a GI50 [13] of 3.78 µM, a TGI [13] of 17.4 µM and a GI50 [14] of 1.26 µM. For the same compound, the TGI [14] was 4.35 µM, the GI50 [15] was 4.31 µM and the TGI [15] was 17.3 µM. For the same compound, the GI50 [16] was 5.61 µM, the TGI [16] was 25.3 µM and the GI50 [17] was 12 µM. The TGI [17] was 25 µM, the GI50 [18] was 10.4 µM and the TGI [18] was 22.5 µM. It also gave a GI50 [19] of 12.9 µM, a TGI [19] of 35.5 µM and a GI50 [20] of 5.75 µM. The TGI [20] was 19.4 µM, the GI50 [21] was 7.08 µM and the TGI [21] was 21.7 µM. It also gave a GI50 [22] of 2.46 µM, a TGI [22] of 7.51 µM and a GI50 [23] of 7 µM. The TGI [23] was 23.9 µM, the GI50 [24] was 11.1 µM and the TGI [24] was 27.1 µM. It also gave a GI50 [25] of 8.77 µM, a TGI [25] of 20.9 µM and a GI50 [26] of 4.54 µM. It also gave a TGI [26] of 45.5 µM, a GI50 [27] of 4.36 µM and a TGI [27] of 17.6 µM. For the same compound, the GI50 [28] was 9.72 µM, the TGI [28] was 22.7 µM and the GI50 [29] was 9.53 µM. It also gave a TGI [29] of 22 µM, a GI50 [30] of 13.1 µM and a TGI [30] of 27.1 µM. The GI50 [31] was 7.15 µM, the TGI [31] was 25.5 µM and the GI50 [32] was 13.1 µM. For the same compound, the TGI [32] was 26.2 µM, the GI50 [33] was 12.6 µM and the TGI [33] was 31.5 µM. For the same compound, the GI50 [34] was 11.9 µM, the TGI [34] was 30.4 µM and the GI50 [35] was 12.7 µM. The TGI [35] was 25.7 µM, the GI50 [36] was 14 µM and the TGI [36] was 28.7 µM. For the same compound, the GI50 [37] was 7.94 µM, the TGI [37] was 20.8 µM and the GI50 [38] was 2.2 µM. For the same compound, the TGI [38] was 6.99 µM, the GI50 [39] was 4.02 µM and the TGI [39] was 16.1 µM. It also gave a GI50 [40] of 1.63 µM, a TGI [40] of 14.9 µM and a GI50 [41] of 4.65 µM. For the same compound, the TGI [41] was 17.6 µM, the GI50 [42] was 12.4 µM and the TGI [42] was 28 µM. The GI50 [43] was 11.5 µM, the TGI [43] was 23.6 µM and the GI50 [44] was 8.41 µM. It also gave a TGI [44] of 31.9 µM, a GI50 [45] of 13.8 µM and a TGI [45] of 27.3 µM. It also gave a GI50 [46] of 14.2 µM, a TGI [46] of 27.9 µM and a GI50 [47] of 6.1 µM. The TGI [47] was 20.4 µM, the GI50 [48] was 3.14 µM and the TGI [48] was 15.5 µM. It also gave a GI50 [49] of 11.6 µM, a TGI [49] of 23.8 µM and a GI50 [50] of 3.51 µM. For the same compound, the TGI [50] was 17.1 µM, the GI50 [51] was 4.9 µM and the TGI [51] was 18 µM. For the same compound, the GI50 [52] was 10.9 µM, the TGI [52] was 23.7 µM and the GI50 [53] was 4.07 µM. For the same compound, the TGI [53] was 17.1 µM, the GI50 [54] was 9.67 µM and the TGI [54] was 24.4 µM. The GI50 [55] was 3.37 µM, the TGI [55] was 16 µM and the GI50 [56] was 10.5 µM. It also gave a TGI [56] of 23.6 µM, a GI50 [57] of 12.6 µM and a TGI [57] of 25.3 µM. It also gave a GI50 [58] of 7.67 µM, a TGI [58] of 21.4 µM and a GI50 [59] of 13.7 µM. It also gave a TGI [59] of 27.4 µM.
